Laboratory results reported in patent publication US7556795B2, “Radiopharmaceutical formulations” (Bracco Imaging S.p.A., priority 2002, dated 2009).

Assay: Radiochemical purity (RCP) of 99mTc labeled peptide by HPLC
Format: physicochemical
Settings: 99mTc complex, 4 μg ligand, 300 μL EtOH, ~40 mCi 99mTcO4-, average of multiple experiments; for Percent RCP at 6 hours: prepared at room temperature; for Percent RCP at 15 min: room temperature 15 min
Procedure: To prepare the ^99mTc complex of Compound 1, 300 μL of ethanol, 50 μL of ligand solution (4 μg Compound 1), 200 μL of gentisic acid solution (20 mg), 50 μL of hydroxypropyl-γ-cyclodextrin solution (2.5 mg) 100 μL of stannous gluconate solution (40 μg of SnCl2), and ^99mTcO4^− (˜40 mCi) was added. Water was added to bring the final volume to 1.0 mL, and the reaction was heated at 100° C. for 15-20 min.
The ^99mTc labeled peptide purity was determined by HPLC using a Vydac C18 protein and peptide analytical column, 300 A pore size, 4.6×250 mm column length. The following gradient (flow rate 1 mL/min) was used: Isocratic elution 78% H2O (0.1% TFA)/22% CH3CN (0.1% TFA) for 20 min, gradient from 78% to 40% CH3CN (0.1% TFA) over 5 min, hold at 40% CH3CN (0.1% TFA) for 10 min, ramp from 40% to 78% CH3CN (0.1% TFA) over 5 min.
To prepare the ^99mTc complex, 50 μL of ligand solution (4 μg Compound 1-4), 300 μL of EtOH, 250 μL of gentisic acid solution (20 mg), 50 μL of 1SnCl2: 34 Gluconic acid (40 μg of SnCl2), and ^99mTcO4^− (˜40 mCi, Syncor) was added. Water was added to bring the final volume to 1.0 mL, and the reaction was allowed to stand at room temperature for 15 min. The solutions were then analyzed for RCP as described in Example 2.
To 50 μL of the Compound 1 solution (4 μg) was added ^99mTcO4^− (190 μL, 41.5 mCi), 0.458 mL of H2O, 50 μL of the stannous gluconate solution (40 μg of SnCl2) and 262 μL of gentisic acid solution (20 mg). The reaction was heated at 100° for 5 min. prior to HPLC analysis, which was performed using the following system: Vydac C-18 Protein and Peptide column (4.6×250 mm) eluted with 78% H2O (0.1% TFA)/22% CH3CN (0.1% TFA) for 20′, ramped from 78% to 40% H2O (0.1% TFA) in 5′, held at 40% H2O (0.1% TFA) for 10′, then ramped from 40% to 78% H2O (0.1% TFA) in 5′. Flow rate: 1 mL/min. The resulting RCP was 87.4% initially and 87.1% at 6 hours. The recovery from the vial was 67%.

Structure (SMILES): CSCC[C@H](NC(=O)[C@H](CC(C)C)NC(=O)[C@H](Cc1cnc[nH]1)NC(=O)CNC(=O)[C@@H](NC(=O)[C@H](C)NC(=O)[C@H](Cc1c[nH]c2ccccc12)NC(=O)[C@H](CCC(N)=O)NC(=O)CCCCNC(=O)CNC(=O)[C@H](CS)NC(=O)[C@H](CO)NC(=O)CN)C(C)C)C(N)=O [Compound 3]
- Percent RCP at 6 hours: 82.4%
- Percent RCP at 15 min: 86.7%

Structure (SMILES): CSCCC(NC(=O)[C@H](CC(C)C)NC(=O)[C@H](Cc1cnc[nH]1)NC(=O)CNC(=O)[C@@H](NC(=O)[C@H](C)NC(=O)[C@H](Cc1c[nH]c2ccccc12)NC(=O)[C@H](CCC(N)=O)NC(=O)CCCCNC(=O)CNC(=O)[C@H](CS)NC(=O)[C@H](CO)NC(=O)CN(C)C)C(C)C)C(N)=O (stereo partly shown) [Compound 1]
- Percent RCP at 6 hours: 88.1%

Structure (SMILES): CSCC[C@H](NC(=O)[C@H](CC(C)C)NC(=O)[C@H](Cc1cnc[nH]1)NC(=O)CNC(=O)[C@@H](NC(=O)[C@H](C)NC(=O)[C@H](Cc1c[nH]c2ccccc12)NC(=O)[C@H](CCC(N)=O)NC(=O)CCCCNC(=O)CNC(=O)[C@H](CS)NC(=O)CNC(=O)CN(C)C)C(C)C)C(N)=O [Compound 2]
- Percent RCP at 6 hours: 78.7%
- Percent RCP at 15 min: 80.8%

Structure (SMILES): CSCC[C@H](NC(=O)[C@H](CC(C)C)NC(=O)[C@H](Cc1cnc[nH]1)NC(=O)CNC(=O)[C@@H](NC(=O)[C@H](C)NC(=O)[C@H](Cc1c[nH]c2ccccc12)NC(=O)[C@H](CCC(N)=O)NC(=O)CCCCNC(=O)CNC(=O)[C@H](CS)NC(=O)CNC(=O)CN)C(C)C)C(N)=O [Compound 4]
- Percent RCP at 6 hours: 83.3%
- Percent RCP at 15 min: 83.3%
